According to the supplement of paper PMC11821682:

Legend:
[1] = test system: Danio rerio embryo; assay: LEL larval photomotor response dark phase 120 hpf
Description: (§1)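 ZBEscreen: dechorionated Tropical 5D zebrafish embryos were exposed from 4 hpf in 96-well plates (1% DMSO, 28 °C). All compounds were first tested at 100 µM; hits were retested at 0.005-100 µM. Morphology and mortality were scored at 120 hpf and fitted as BMC10 (3-parameter log-logistic, extra risk). The embryonic photomotor response at 24 hpf and the larval photomotor response at 120 hpf are given as lowest effect levels (K-S test, p<0.01). NA = not significant up to 100 µM; NT = not tested.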

[2] = test system: Danio rerio embryo; assay: LEL embryonic photomotor response 24 hpf
Description: as §1

[3] = test system: Danio rerio embryo; assay: BMC10 any morphological effect or mortality at 120 hpf; higher = less toxic
[4] = test system: HL-60; assay: Cell Health Index (toxicity pseudo-probability over dose series) (index 0-1); higher = more cytotoxic / cell stress;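 further: HL-60 cells exposed 4 h at 37 °C to ten threefold dilutions spanning 5 nM to 100 µM, multiparametric flow cytometry features scored by machine-learning classification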

Row | SMILES | LEL larval photomotor response dark phase 120 hpf [1] | LEL embryonic photomotor response 24 hpf [2] | BMC10 any morphological effect or mortality [3] | Cell Health Index [4]
1 | O=C(OC[C@H]1O[C@@H](OC(=O)c2cc(O)c(O)c(OC(=O)c3cc(O)c(O)c(O)c3)c2)[C@H](OC(=O)c2cc(O)c(O)c(OC(=O)c3cc(O)c(O)c(O)c3)c2)[C@@H](OC(=O)c2cc(O)c(O)c(OC(=O)c3cc(O)c(O)c(O)c3)c2)[C@@H]1OC(=O)c1cc(O)c(O)c(OC(=O)c2cc(O)c(O)c(O)c2)c1)c1cc(O)c(O)c(OC(=O)c2cc(O)c(O)c(O)c2)c1 [Chinese Gallotannin] | > 100 µM | 100 µM | 32.8 µM | 0.935
2 | CC(C)c1nc(CN(C)C(=O)N[C@@H](CCN2CCOCC2)C(=O)N[C@H](CC[C@H](Cc2ccccc2)NC(=O)OCc2cncs2)Cc2ccccc2)cs1 [Cobicistat] | > 100 µM | > 100 µM | > 100 µM | 0.831
3 | Cl.N=c1ccn2c(n1)O[C@H]1[C@H](O)[C@@H](CO)O[C@H]12 [Cyclocytidine] | > 100 µM | > 100 µM | > 100 µM | 0.207
4 | C/C=C/C[C@@H](C)[C@@H](O)[C@H]1C(=O)N[C@@H]([C@@H](C)O)C(=O)N(C)CC(=O)N(C)[C@@H](CC(C)C)C(=O)N[C@@H](C(C)C)C(=O)N(C)[C@@H](CC(C)C)C(=O)N[C@@H](C)C(=O)N[C@H](C)C(=O)N(C)[C@@H](CC(C)C)C(=O)N(C)[C@@H](CC(C)C)C(=O)N(C)[C@@H](C(C)C)C(=O)N1C [Cyclosporin C] | 3.7 µM | 33.3 µM | > 100 µM | 0.918
5 | S=C([S-])OC1CC2CC1C1CCCC21.[K+] (configuration not stated) [D609 parent] | > 100 µM | > 100 µM | > 100 µM | 0.277
6 | C[C@H](NC(=O)Cc1cc(F)cc(F)c1)C(=O)N[C@@H]1C(=O)N(C)c2ccccc2-c2ccccc21 [DBZ] | 0.41 µM | 11.1 µM | 0.365 µM | 0.293
7 | C[C@@H]1CCO[C@H]2Cn3cc(C(=O)NCc4ccc(F)cc4F)c(=O)c(O)c3C(=O)N12 [Dolutegravir] | > 100 µM | > 100 µM | > 100 µM | 0.167
8 | CC(C)C[C@H](NC(=O)[C@H]1O[C@@H]1C(=O)O)C(=O)NCCCCNC(=N)N [E-64] | > 100 µM | > 100 µM | > 100 µM | 0.121
9 | Cc1cc(C#N)cc(C)c1Oc1nc(Nc2ccc(C#N)cc2)nc(N)c1Br [Etravirine] | > 100 µM | > 100 µM | > 100 µM | 0.898
10 | COc1ccc(-c2coc3cc(O)ccc3c2=O)cc1 [Formononetin] | > 100 µM | 100 µM | 23 µM | 0.288
11 | O=C(NCc1ccco1)c1ccc2c(c1)N(Cc1c(F)cccc1Cl)C(=O)CS2 [G10] | > 100 µM | 11.1 µM | > 100 µM | 0.311
12 | CCOC(=O)c1ccc(OC(=O)CCCCCNC(=N)N)cc1.CS(=O)(=O)O [Gabexate] | > 100 µM | > 100 µM | > 100 µM | 0.22
13 | CCS(=O)(=O)Nc1ccc2c(c1)/C(=C(/Nc1ccc(CN3CCCCC3)cc1)c1ccccc1)C(=O)N2 [Hesperadin] | > 100 µM | 3.7 µM | 2.02 µM | 0.882
